Data from PubChem BioAssay (NCI).
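All cell lines were grown in 96-well plates and treated with compound for 48 hours. At the GI50, growth is halved. TGI denotes the concentration required for complete inhibition of growth.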

What was measured:
Assay in all cases: NCI-60 cell line screen, 48 h; in the data active = GI50 below about 0.43 µM; inactive = the rest
CCRF-CEM leukemia = tested on: CCRF-CEM leukemia
CAKI-1 renal = tested on: CAKI-1 renal
BT-549 breast = tested on: BT-549 breast
K-562 leukemia = tested on: K-562 leukemia
MCF7 breast = tested on: MCF7 breast
ACHN renal = tested on: ACHN renal
HCT-15 colon = tested on: HCT-15 colon
UO-31 renal = tested on: UO-31 renal
786-0 renal = tested on: 786-0 renal
HOP-62 NSCLC = tested on: HOP-62 NSCLC
SF-295 CNS = tested on: SF-295 CNS
TK-10 renal = tested on: TK-10 renal
SK-MEL-5 melanoma = tested on: SK-MEL-5 melanoma
OVCAR-5 ovarian = tested on: OVCAR-5 ovarian
U251 CNS = tested on: U251 CNS
NCI-H522 lung = tested on: NCI-H522 lung
RPMI-8226 leukemia = tested on: RPMI-8226 leukemia
A498 renal = tested on: A498 renal
MDA-MB-435 = tested on: MDA-MB-435
HOP-92 NSCLC = tested on: HOP-92 NSCLC
HCC-2998 colon = tested on: HCC-2998 colon
EKVX NSCLC = tested on: EKVX NSCLC
MDA-MB-231 breast = tested on: MDA-MB-231 breast
SK-MEL-2 melanoma = tested on: SK-MEL-2 melanoma
NCI-H460 lung = tested on: NCI-H460 lung
T-47D breast = tested on: T-47D breast
A549 NSCLC = tested on: A549 NSCLC
SNB-19 CNS = tested on: SNB-19 CNS
SK-OV-3 ovarian = tested on: SK-OV-3 ovarian
KM12 colon = tested on: KM12 colon
SR leukemia = tested on: SR leukemia
OVCAR-4 ovarian = tested on: OVCAR-4 ovarian
M14 melanoma = tested on: M14 melanoma
MALME-3M melanoma = tested on: MALME-3M melanoma
HCT-116 colon = tested on: HCT-116 colon
SK-MEL-28 melanoma = tested on: SK-MEL-28 melanoma
NCI-H23 lung = tested on: NCI-H23 lung
SW-620 colon = tested on: SW-620 colon
LOX IMVI melanoma = tested on: LOX IMVI melanoma
NCI-H226 lung = tested on: NCI-H226 lung
HL-60(TB) leukemia = tested on: HL-60(TB) leukemia
SNB-75 CNS = tested on: SNB-75 CNS
SF-268 CNS = tested on: SF-268 CNS
RXF 393 renal = tested on: RXF 393 renal
SN12C renal = tested on: SN12C renal
UACC-62 melanoma = tested on: UACC-62 melanoma
OVCAR-8 ovarian = tested on: OVCAR-8 ovarian
PC-3 prostate = tested on: PC-3 prostate
OVCAR-3 ovarian = tested on: OVCAR-3 ovarian
HT29 colon = tested on: HT29 colon
SF-539 CNS = tested on: SF-539 CNS
COLO 205 colon = tested on: COLO 205 colon
IGROV1 ovarian = tested on: IGROV1 ovarian
NCI/ADR-RES ovarian = tested on: NCI/ADR-RES ovarian
UACC-257 melanoma = tested on: UACC-257 melanoma
DU-145 prostate = tested on: DU-145 prostate

O=C1OC(=O)C2C1C1(c3ccccc3)C(c3ccccc3)=C(c3ccccc3)C2(c2ccccc2)S1=O (configuration not stated)
> 100 µM: TGI (CCRF-CEM leukemia) | TGI (CAKI-1 renal) | TGI (BT-549 breast) | TGI (K-562 leukemia) | TGI (MCF7 breast) | TGI (ACHN renal) | TGI (HCT-15 colon) | TGI (UO-31 renal) | TGI (786-0 renal) | TGI (HOP-62 NSCLC) | TGI (SF-295 CNS) | TGI (TK-10 renal) | TGI (SK-MEL-5 melanoma) | TGI (OVCAR-5 ovarian) | TGI (U251 CNS) | TGI (NCI-H522 lung) | TGI (RPMI-8226 leukemia) | TGI (A498 renal) | TGI (MDA-MB-435) | TGI (HOP-92 NSCLC) | TGI (HCC-2998 colon) | TGI (EKVX NSCLC) | TGI (MDA-MB-231 breast) | TGI (SK-MEL-2 melanoma) | TGI (NCI-H460 lung) | TGI (T-47D breast) | TGI (A549 NSCLC) | TGI (SNB-19 CNS) | TGI (SK-OV-3 ovarian) | TGI (KM12 colon) | TGI (SR leukemia) | TGI (OVCAR-4 ovarian) | TGI (M14 melanoma) | TGI (MALME-3M melanoma) | TGI (HCT-116 colon) | TGI (SK-MEL-28 melanoma) | TGI (NCI-H23 lung) | TGI (SW-620 colon) | TGI (LOX IMVI melanoma) | TGI (NCI-H226 lung) | TGI (HL-60(TB) leukemia) | TGI (SNB-75 CNS) | TGI (SF-268 CNS) | TGI (RXF 393 renal) | TGI (SN12C renal) | TGI (UACC-62 melanoma) | TGI (OVCAR-8 ovarian) | TGI (PC-3 prostate) | TGI (OVCAR-3 ovarian) | TGI (HT29 colon) | TGI (SF-539 CNS) | TGI (COLO 205 colon) | TGI (IGROV1 ovarian) | TGI (NCI/ADR-RES ovarian) | TGI (UACC-257 melanoma) | TGI (DU-145 prostate)
inactive: GI50 (CCRF-CEM leukemia) > 100 µM | GI50 (CAKI-1 renal) > 100 µM | GI50 (BT-549 breast) 26.3 µM | GI50 (K-562 leukemia) 78.2 µM | GI50 (MCF7 breast) > 100 µM | GI50 (ACHN renal) > 100 µM | GI50 (HCT-15 colon) > 100 µM | GI50 (UO-31 renal) > 100 µM | GI50 (786-0 renal) > 100 µM | GI50 (HOP-62 NSCLC) > 100 µM | GI50 (SF-295 CNS) > 100 µM | GI50 (TK-10 renal) > 100 µM | GI50 (SK-MEL-5 melanoma) > 100 µM | GI50 (OVCAR-5 ovarian) > 100 µM | GI50 (U251 CNS) > 100 µM | GI50 (NCI-H522 lung) > 100 µM | GI50 (RPMI-8226 leukemia) 53.1 µM | GI50 (A498 renal) > 100 µM | GI50 (MDA-MB-435) > 100 µM | GI50 (HOP-92 NSCLC) > 100 µM | GI50 (HCC-2998 colon) > 100 µM | GI50 (EKVX NSCLC) > 100 µM | GI50 (MDA-MB-231 breast) > 100 µM | GI50 (SK-MEL-2 melanoma) > 100 µM | GI50 (NCI-H460 lung) > 100 µM | GI50 (T-47D breast) > 100 µM | GI50 (A549 NSCLC) > 100 µM | GI50 (SNB-19 CNS) > 100 µM | GI50 (SK-OV-3 ovarian) > 100 µM | GI50 (KM12 colon) > 100 µM | GI50 (SR leukemia) 49.3 µM | GI50 (OVCAR-4 ovarian) > 100 µM | GI50 (M14 melanoma) > 100 µM | GI50 (MALME-3M melanoma) > 100 µM | GI50 (HCT-116 colon) > 100 µM | GI50 (SK-MEL-28 melanoma) > 100 µM | GI50 (NCI-H23 lung) > 100 µM | GI50 (SW-620 colon) > 100 µM | GI50 (LOX IMVI melanoma) > 100 µM | GI50 (NCI-H226 lung) > 100 µM | GI50 (HL-60(TB) leukemia) > 100 µM | GI50 (SNB-75 CNS) > 100 µM | GI50 (SF-268 CNS) > 100 µM | GI50 (RXF 393 renal) > 100 µM | GI50 (SN12C renal) > 100 µM | GI50 (UACC-62 melanoma) 49.4 µM | GI50 (OVCAR-8 ovarian) > 100 µM | GI50 (PC-3 prostate) 87.7 µM | GI50 (OVCAR-3 ovarian) > 100 µM | GI50 (HT29 colon) > 100 µM | GI50 (SF-539 CNS) > 100 µM | GI50 (COLO 205 colon) > 100 µM | GI50 (IGROV1 ovarian) > 100 µM | GI50 (NCI/ADR-RES ovarian) > 100 µM | GI50 (UACC-257 melanoma) > 100 µM | GI50 (DU-145 prostate) > 100 µM
